Converted amounts (≈) assume the structure as drawn.
Legend:
[1] = test system: HeLa; assay: Cytotoxicity against human HeLa cells assessed as inhibition of cell growth incubated for 48 hrs by MTT assay; format: functional, cell-based
[2] = test system: K562; assay: Cytotoxicity against human K562 cells assessed as inhibition of cell growth incubated for 48 hrs by MTT assay; format: functional, cell-based; conditions: K562, 48 h
[3] = test system: A549; assay: Cytotoxicity against human A549 cells assessed as inhibition of cell growth incubated for 48 hrs by MTT assay; format: functional, cell-based; conditions: A549, 48 h
[4] = test system: K562; assay: Antiproliferative activity against human K562 cells assessed as inhibition of cell proliferation incubated for 48 hrs by MTT assay; format: functional, cell-based; conditions: K562, 48 h
[5] = test system: HepG2; assay: Antiproliferative activity against human HepG2 cells assessed as inhibition of cell proliferation incubated for 48 hrs by MTT assay; format: functional, cell-based; conditions: HepG2, 48 h
[6] = Antiproliferative activity against human QSG7701 cells assessed as inhibition of cell proliferation incubated for 48 hrs by MTT assay; format: toxicity, cell-based
[7] = test system: MDA-MB-231; assay: Antiproliferative activity against human MDA-MB-231 cells assessed as inhibition of cell proliferation incubated for 48 hrs by MTT assay; format: functional, cell-based; conditions: MDA-MB-231, 48 h
[8] = test system: SMMC-7721; assay: Antiproliferative activity against human SMMC-7721 cells assessed as inhibition of cell proliferation incubated for 48 hrs by MTT assay; format: functional, cell-based; conditions: SMMC-7721, 48 h
[9] = test system: HCT-116; assay: Antiproliferative activity against human HCT-116 cells assessed as inhibition of cell proliferation incubated for 48 hrs by MTT assay; format: functional, cell-based; conditions: HCT-116, 48 h
[10] = test system: Staphylococcus epidermidis; assay: Antibacterial activity against Staphylococcus epidermidis MTCC 435 assessed as inhibition of bacterial growth by agar well diffusion assay; format: functional
[11] = test system: Calf thymus DNA; assay: Binding affinity to calf thymus DNA assessed as DNA intercalation by measuring change in melting temperature by thermal denaturation assay; format: nucleic-acid assay; conditions: Bos taurus
[12] = test system: Pseudomonas aeruginosa; assay: Antibacterial activity against Pseudomonas aeruginosa MTCC 741 assessed as inhibition of bacterial growth by agar well diffusion assay; format: functional
[13] = test system: Escherichia coli; assay: Antibacterial activity against Escherichia coli MTCC 443 assessed as inhibition of bacterial growth by agar well diffusion assay; format: functional
[14] = test system: Staphylococcus aureus; assay: Antibacterial activity against Staphylococcus aureus MTCC 96 assessed as inhibition of bacterial growth by agar well diffusion assay; format: functional
[15] = Antiproliferative activity against human HMEC-1 cells assessed as inhibition of cell proliferation incubated for 48 hrs by coulter counter assay; format: toxicity, cell-based
[16] = test system: CCRF-CEM; assay: Antiproliferative activity against human CEM cells assessed as inhibition of cell proliferation incubated for 48 hrs by coulter counter assay; format: functional, cell-based
[17] = test system: L1210; assay: Antiproliferative activity against mouse L1210 cells assessed as inhibition of cell proliferation incubated for 48 hrs by coulter counter assay; format: functional, cell-based; conditions: L1210, 48 h
[18] = test system: HeLa; assay: Antiproliferative activity against human HeLa cells assessed as inhibition of cell proliferation incubated for 48 hrs by coulter counter assay; format: functional, cell-based
[19] = Cytotoxicity against human QSG7701 cells assessed as inhibition of cell growth incubated for 48 hrs by MTT assay; format: toxicity, cell-based

Compound: CN(C)CCN1C(=O)c2cccc3cc(NC(=O)CCCN)cc(c23)C1=O
- IC50 [1]: 21.5 µM
- IC50 [2]: 8.5 µM
- IC50 [3]: 4.7 µM

Compound: CN(C)CCNC(=O)Nc1cc2c3c(cccc3c1)C(=O)N(CCN(C)C)C2=O
- IC50 [4]: 8.62 µM
- IC50 [5]: > 50 µM
- IC50 at 48 h [6]: > 50 µM
- IC50 [7]: > 50 µM
- IC50 [8]: 8.62 µM
- IC50 [9]: 8.62 µM

Compound: O=C1c2ccc3c4c(ccc(c24)C(=O)N1c1nc(-c2cc4cc(Br)cc(Br)c4oc2=O)cs1)C(=O)N(c1nc(-c2cc4cc(Br)cc(Br)c4oc2=O)cs1)C3=O
- MIC [10]: 18.8 µg/mL (≈ 18.1 µM)
- ΔTm [11]: 0.1 °C
- MIC [12]: 18.8 µg/mL (≈ 18.1 µM)
- MIC [13]: 18.8 µg/mL (≈ 18.1 µM)
- MIC [14]: 18.8 µg/mL (≈ 18.1 µM)

Compound: CN(C)CCN1C(=O)c2cccc3cc(NC(=O)NCCCNCCCNCCCCN)cc(c23)C1=O
- IC50 [4]: > 50 µM
- IC50 [5]: > 50 µM
- IC50 at 48 h [6]: > 50 µM
- IC50 [7]: > 50 µM
- IC50 [8]: > 50 µM
- IC50 [9]: > 50 µM

Compound: O=C1c2ccc3c4c(ccc(c24)C(=O)N1c1nc(-c2cc4cc(Cl)cc(Cl)c4oc2=O)cs1)C(=O)N(c1nc(-c2cc4cc(Cl)cc(Cl)c4oc2=O)cs1)C3=O
- MIC [10]: 18.8 µg/mL (≈ 21.8 µM)
- ΔTm [11]: 0.1 °C
- MIC [12]: 18.8 µg/mL (≈ 21.8 µM)
- MIC [13]: 18.8 µg/mL (≈ 21.8 µM)
- MIC [14]: 18.8 µg/mL (≈ 21.8 µM)

Compound: CN(C)CCN1C(=O)c2cccc3cc(NC(=O)CNC(=O)C(Cl)Cl)cc(c23)C1=O
- IC50 [1]: 21.5 µM
- IC50 [2]: 8.5 µM
- IC50 [3]: 4.7 µM

Compound: CN(C)CCN1C(=O)c2cccc3cc(NC(=O)CCNC(=O)C(Cl)Cl)cc(c23)C1=O
- IC50 [1]: 21.5 µM
- IC50 [2]: 8.5 µM
- IC50 [3]: 4.7 µM

Compound: CN(C)CCN1C(=O)c2cccc3cc(NC(=O)CCCCCN)cc(c23)C1=O
- IC50 [1]: 21.5 µM
- IC50 [2]: 8.5 µM
- IC50 [3]: 4.7 µM

Compound: CN(C)CCN1C(=O)c2cccc3cc(NC(=O)CNCCCNCCCCNCCCN)cc(c23)C1=O
- IC50 [4]: 6.42 µM
- IC50 [5]: 6.42 µM
- IC50 at 48 h [6]: 6.42 µM
- IC50 [7]: 6.42 µM
- IC50 [8]: 6.42 µM
- IC50 [9]: 6.42 µM

Compound: CN(C)CCN1C(=O)c2cccc3cc(NC(=O)CCCCCNC(=O)C(Cl)Cl)cc(c23)C1=O
- IC50 [1]: 21.5 µM
- IC50 [2]: 8.5 µM
- IC50 [3]: 4.7 µM

Compound: CCCCNC(=O)Nc1cc2c3c(cccc3c1)C(=O)N(CCN(C)C)C2=O
- IC50 [4]: > 50 µM
- IC50 [5]: > 50 µM
- IC50 at 48 h [6]: > 50 µM
- IC50 [7]: > 50 µM
- IC50 [8]: > 50 µM
- IC50 [9]: > 50 µM

Compound: CCOP(=O)(CCOCn1cc(CN2C(=O)c3cccc4c(Br)ccc(c34)C2=O)nn1)OCC
- IC50 at 48 h [15]: > 250 µM
- IC50 [16]: > 250 µM
- IC50 [17]: > 250 µM
- IC50 [18]: > 250 µM

Compound: CCOP(=O)(CC(O)Cn1cc(CN2C(=O)c3cccc4c(Br)ccc(c34)C2=O)nn1)OCC (stereo unspecified)
- IC50 at 48 h [15]: > 250 µM
- IC50 [16]: > 250 µM
- IC50 [17]: > 250 µM
- IC50 [18]: > 250 µM

Compound: CCOP(=O)(CCn1cc(CN2C(=O)c3cccc4cc([N+](=O)[O-])cc(c34)C2=O)nn1)OCC
- IC50 at 48 h [15]: > 250 µM
- IC50 [16]: > 250 µM
- IC50 [17]: > 250 µM
- IC50 [18]: > 250 µM

Compound: CN(C)CCN1C(=O)c2cccc3cc(NC(=O)NCCCN)cc(c23)C1=O
- IC50 [4]: > 50 µM
- IC50 [5]: > 50 µM
- IC50 at 48 h [6]: > 50 µM
- IC50 [7]: > 50 µM
- IC50 [8]: > 50 µM
- IC50 [9]: > 50 µM

Compound: CCOP(=O)(CCn1cc(CN2C(=O)c3cccc4cccc(c34)C2=O)nn1)OCC
- IC50 at 48 h [15]: > 250 µM
- IC50 [16]: > 250 µM
- IC50 [17]: > 250 µM
- IC50 [18]: > 250 µM

Compound: CCOP(=O)(CC(=O)NCn1cc(CN2C(=O)c3cccc4c(Br)ccc(c34)C2=O)nn1)OCC
- IC50 at 48 h [15]: > 250 µM
- IC50 [16]: > 250 µM
- IC50 [17]: > 250 µM
- IC50 [18]: > 250 µM

Compound: CN(C)CCN1C(=O)c2cccc3cc(NC(=O)CCCNC(=O)C(Cl)Cl)cc(c23)C1=O
- IC50 [1]: 21.5 µM
- IC50 [2]: 8.5 µM
- IC50 [3]: 4.7 µM

Compound: CCOP(=O)(CCOCn1cc(CN2C(=O)c3cccc4cccc(c34)C2=O)nn1)OCC
- IC50 at 48 h [15]: > 250 µM
- IC50 [16]: > 250 µM
- IC50 [17]: > 250 µM
- IC50 [18]: > 250 µM

Compound: NCCCNCCCCNCCCN1C(=O)c2cccc3cccc(c23)C1=O
- IC50 at 48 h [19]: > 50 µM

Compound: CCOP(=O)(CC(O)Cn1cc(CN2C(=O)c3cccc4cc([N+](=O)[O-])cc(c34)C2=O)nn1)OCC (stereo unspecified)
- IC50 at 48 h [15]: > 250 µM
- IC50 [16]: > 250 µM
- IC50 [17]: > 250 µM
- IC50 [18]: > 250 µM

Compound: CCOP(=O)(CCCCn1cc(CN2C(=O)c3cccc4cccc(c34)C2=O)nn1)OCC
- IC50 at 48 h [15]: > 250 µM
- IC50 [16]: > 250 µM
- IC50 [17]: > 250 µM
- IC50 [18]: > 250 µM
